For 49 compounds, viability and inhibition of growth results are on record in publication PMC7216583 (Parasites & Vectors, 2020).

Structures are written as SMILES. Where a name gives a salt, the structure may show the parent alone. Read-outs that look alike come from different tables or passages of the source.

The nature of one data set: in vitro. Particulars: human.
For data set [1], the system named is Toxoplasma gondii RH-2F tachyzoites. Description: microbe, parasite or virus in culture. To be noted: 72 h.
The mark [2] stands for this setting: read-out: Parasite inhibition (%) mean, preliminary screen of compound library, mean.
Setting [3] is: read-out: Parasite inhibition (%) mean, preliminary screen, mean.

The compound `CN1CCC(=C2c3ccccc3C=Cc3ccccc32)CC1` [Cyproheptadine HCl (Periactin)] showed a viability at 72 h in “in vitro” (uninfected human foreskin fibroblasts (HFFs), Host viability (%) mean, preliminary screen, mean) of 90.6%. In the case of `CN1CCC(=C2c3ccccc3C=Cc3ccccc32)CC1` [Cyproheptadine HCl, reference compound], the viability at 72 h, 5 µM in “in vitro” (Host viability (%) Mean ± SD) worked out at 90.6 ± 1.2%. In “in vitro”, `Nc1nc2[nH]cc(CCc3ccc(C(=O)N[C@@H](CCC(=O)O)C(=O)O)cc3)c2c(=O)[nH]1` [Pemetrexed disodium, reference compound] returned a viability at 72 h, 5 µM of 84.6 ± 1.5%.

On to `CC1CCN(CC[C@H]2CCCN2S(=O)(=O)c2cccc(O)c2)CC1` [SB-269970 HCl], for which, in data set [1] (setting [2]), the inhibition of growth at 5 µM was -10.7%. For `O=S(=O)(c1ccccc1)c1cnc2c(N3CCNCC3)cccc2c1` [SB-742457], in data set [1] (setting [2]), the inhibition of growth at 5 µM was found to be 0.6%. For the compound `Cn1cc(-c2ccc3nnc(Sc4ccc5ncccc5c4)n3n2)cn1` [SGX-523], the inhibition of growth at 5 µM in data set [1] (setting [3]) worked out at 45.5%. With `CC1(C)CC(=O)c2c(C(F)(F)F)nn(-c3ccc(C(N)=O)c(N[C@H]4CC[C@H](O)CC4)c3)c2C1` [SNX-2112], the inhibition of growth at 5 µM in data set [1] (setting [2]) was determined as 9.9%. `Cc1cccc(Nc2nc(-c3ccncc3)cs2)c1` [STF-62247]: the inhibition of growth at 5 µM in data set [1] (setting [3]) worked out at 15.2%. Still for that read-out and setting: the value for `N#C[C@@H]1C[C@@H]2C[C@H]2N1C(=O)[C@@H](N)C12CC3CC(CC(O)(C3)C1)C2` [Saxagliptin (BMS-477118,Onglyza)] was 9.7%. On to `Cc1cc(C)c(/C=C2\C(=O)Nc3ccccc32)[nH]1` [Semaxanib (SU5416)], for which, in data set [1] (setting [2]), the inhibition of growth at 5 µM is -78.8%. As for `C[C@H](Cc1cc2c(c(C(N)=O)c1)N(CCCO)CC2)NCCOc1ccccc1OCC(F)(F)F` [Silodosin (Rapaflo)], in data set [1] (setting [3]), the inhibition of growth at 5 µM stood at 47.9%. Consider `N[C@@H](CC(=O)N1CCn2c(nnc2C(F)(F)F)C1)Cc1cc(F)c(F)cc1F` [Sitagliptin phosphate monohydrate], for which, in data set [1] (setting [2]), the inhibition of growth at 5 µM is 1.1%.

Consider `O=C(O)C(O)Cc1ccc(O)c(O)c1` (stereo not shown) [Sodium Danshensu], for which the inhibition of growth at 5 µM in data set [1] (setting [2]) worked out at 2.2%. On the same count and under the same terms, the same measure for `O=S(=O)(O)Oc1ccc(C(c2ccc(OS(=O)(=O)O)cc2)c2ccccn2)cc1` [Sodium Picosulfate]: 0.3%; for `CCCC(=O)[O-].[Na+]` [Sodium butyrate]: 23.1%.

On to `CNC(=O)c1cc(Oc2ccc(NC(=O)Nc3ccc(Cl)c(C(F)(F)F)c3)cc2)ccn1` [Sorafenib (Nexavar)], for which, in data set [1] (setting [3]), the inhibition of growth at 5 µM is 55.5%. Take `OC[C@@H](O)[C@@H](O)[C@H](O)[C@@H](O)CO` [Sorbitol (Glucitol)]: the inhibition of growth at 5 µM in data set [1] (setting [2]) is -66.9%.

For `CC(=O)NS(=O)(=O)c1ccc(N)cc1` [Sulfacetamide Sodium], the inhibition of growth at 5 µM in data set [1] (setting [2]) was 0.9%. Turning to `CNCC(O)c1ccc(O)cc1` (stereo not shown) [Synephrine HCl], the inhibition of growth at 5 µM in data set [1] (setting [2]) turned out to be 3.7%. Same read-out and setting: the value for `CCc1nc(-c2cccc(C)c2)c(-c2ccnc(NC(=O)c3ccccc3)c2)s1` [TAK 715] was 22.5%.

Turning to `Nc1nc(N)c2nc(-c3cccc(O)c3)c(-c3cccc(O)c3)nc2n1` [TG100-115], in data set [1] (setting [3]), the inhibition of growth at 5 µM amounted to 9.5%. Take `Cc1cnc(Nc2ccc(OCCN3CCCC3)cc2)nc1Nc1cccc(S(=O)(=O)NC(C)(C)C)c1` [TG101348 (SAR302503)]: in data set [1] (setting [2]), the inhibition of growth at 5 µM was 8.5%.

Consider `Clc1ccccc1C(c1ccccc1)(c1ccccc1)n1cccn1` [TRAM-34], for which, in data set [1] (setting [3]), the inhibition of growth at 5 µM was determined as 2.6%. In the case of `CCOC(=O)c1ccc(C#Cc2ccc3c(c2)C(C)(C)CCS3)nc1` [Tazarotene (Avage)], the inhibition of growth at 5 µM in data set [1] (setting [2]) was -0.7%.

As for `Cc1cn([C@@H]2C[C@@H](O)[C@H](CO)O2)c(=O)[nH]c1=O` [Telbivudine (Sebivo, Tyzeka)], the inhibition of growth at 5 µM in data set [1] (setting [2]) stood at 12.9%. As for `CCOC(=O)[C@H](CCc1ccccc1)N[C@H]1CS[C@H](c2cccs2)CN(CC(=O)O)C1=O` [Temocapril HCl], the inhibition of growth at 5 µM in data set [1] (setting [3]) is 31.7%. Still for that read-out and setting: the same measure for `C[C@H](Cn1cnc2c(N)ncnc21)OCP(=O)(O)O` [Tenofovir (Viread)]: 0%; for `CC(C)OC(=O)OCOP(=O)(CO[C@H](C)Cn1cnc2c(N)ncnc21)OCOC(=O)OC(C)C` [Tenofovir Disoproxil Fumarate]: 0.5%. As to `CC(S)C(=O)NCC(=O)O` (stereo not shown) [Tiopronin (Thiola)], in data set [1] (setting [2]), the inhibition of growth at 5 µM came to 0.9%.

On to `C[N+]1(C)[C@@H]2C[C@@H](OC(=O)C(O)(c3cccs3)c3cccs3)C[C@H]1[C@@H]1O[C@@H]12` [Tiotropium Bromide hydrate], for which, in data set [1] (setting [2]), the inhibition of growth at 5 µM is -0.7%.

In the case of `COc1cc2nccc(Oc3ccc(NC(=O)Nc4cc(C)on4)c(Cl)c3)c2cc1OC` [Tivozanib (AV-951)], the inhibition of growth at 5 µM in data set [1] (setting [3]) is -5.5%. With `C[C@H]1CCN(C(=O)CC#N)C[C@@H]1N(C)c1ncnc2[nH]ccc12` [Tofacitinib (CP-690550, Tasocitinib)], the inhibition of growth at 5 µM in data set [1] (setting [2]) was determined as 11.2%.

`Cc1ccc(O)c([C@H](CCN(C(C)C)C(C)C)c2ccccc2)c1` [Tolterodine tartrate (Detrol LA)]: the inhibition of growth at 5 µM in data set [1] (setting [2]) was found to be 2.2%. Still for that read-out and setting: the same measure for `CCC(=O)N1CCN(c2ccc(-n3c(=O)ccc4cnc5ccc(-c6cnc7ccccc7c6)cc5c43)cc2C(F)(F)F)CC1` [Torin 1]: 17.8%; for `Nc1ccc(-c2ccc3ncc4ccc(=O)n(-c5cccc(C(F)(F)F)c5)c4c3c2)cn1` [Torin 2]: 25.1%. Turning to `CCC(COC(=O)c1cc(OC)c(OC)c(OC)c1)(c1ccccc1)N(C)C` (stereo not shown) [Trimebutine], the inhibition of growth at 5 µM in data set [1] (setting [3]) is 1.4%. On to `CN1CCc2c(c3ccccc3n2Cc2ccc(C(=O)NO)cc2)C1` [Tubastatin A HCl], for which the inhibition of growth at 5 µM in data set [1] (setting [2]) stood at 2.3%. The same measure, in the same setting: the value for `O=C(Nc1ccc(S(=O)(=O)Nc2ccccc2Cl)c(Cl)c1)c1ccccn1` [VU 0364439] was -0.9%.

Regarding `CC(C)(CO)c1cc2cc(NC(=O)C3(c4ccc5c(c4)OC(F)(F)O5)CC3)c(F)cc2n1C[C@@H](O)CO` [VX-661], the inhibition of growth at 5 µM in data set [1] (setting [2]) worked out at 0.6%. For the compound `CC(C)[C@H](N)C(=O)OCCOCn1cnc2c(=O)[nH]c(N)nc21` [Valaciclovir HCl], in data set [1] (setting [2]), the inhibition of growth at 5 µM was 0.1%. In the case of `c1cnc2cc3c(cc2n1)C1CNCC3C1` [Varenicline tartrate], the inhibition of growth at 5 µM in data set [1] (setting [3]) is 0%. As to `CCCS(=O)(=O)Nc1ccc(F)c(C(=O)c2c[nH]c3ncc(-c4ccc(Cl)cc4)cc23)c1F` [Vemurafenib (PLX4032)], the inhibition of growth at 5 µM in data set [1] (setting [3]) worked out at 0.5%. As to `N#C[C@@H]1CCCN1C(=O)CNC12CC3CC(CC(O)(C3)C1)C2` [Vildagliptin (LAF-237)], the inhibition of growth at 5 µM in data set [1] (setting [2]) was -11.7%. Take `C=CC(=O)Nc1cccc(Sc2nc(Nc3ccc(N4CCN(C)CC4)cc3)ncc2Cl)c1` [WZ8040]: in data set [1] (read-out: Parasite inhibition (%) mean), the inhibition of growth at 5 µM turned out to be 2.8%. For `Oc1nc(-c2ccc(C(F)(F)F)cc2)nc2c1CSCC2` [XAV-939], the inhibition of growth at 5 µM in data set [1] (setting [3]) is -38.8%.

Consider `O=C[C@H](O)[C@@H](O)[C@H](O)CO` [Xylose], for which the inhibition of growth at 5 µM in data set [1] (setting [2]) is -51.2%. Take `C[C@@H](N)[C@H]1CC[C@H](C(=O)Nc2ccncc2)CC1` [Y-27632 2HCl]: the inhibition of growth at 5 µM in data set [1] (setting [3]) is -4.8%. Take `CC(C(=O)O)c1ccc2c(c1)CC(=O)c1ccccc1S2` (stereo not shown) [Zaltoprofen]: the inhibition of growth at 5 µM in data set [1] (setting [2]) was determined as 3.3%. On the same count and under the same terms, the value for `O=C1Cc2cc(CCN3CCN(c4nsc5ccccc45)CC3)c(Cl)cc2N1` [Ziprasidone hydrochloride] was 33.7%.

A word on the viability: it is a per cent measure of how many cells are alive, often set against a control. Lower therefore signals a greater loss of cells.
